Earlier results, collected in patent publication US7851640B2, “Catalytic enantioselective synthesis of flavanones and chromanones” (Northwestern University, priority 2008, dated 2010).

System: MMP-2
Conditions: PCa cells treated with genistein

O=c1c(-c2ccc(O)cc2)coc2cc(O)cc(O)c12 [genistein]
levels of MMP-2 gene transcript and protein: decreased levels of both MMP-2 gene transcript and protein
